# Where two headings read alike, the source gives them in different places.
# Columns and labels:
# [1] = Saturated solubility (Cs) measured to establish sink conditions; format: physicochemical
# Method: Prior to carrying out in vitro release studies, the saturated solubility of diltiazem HCI was measured in order to establish sink conditions.
# Prior to carrying out in vitro release studies, the saturated solubility of diltiazem base was measured in order to establish sink conditions. […] The microsphere systems studied had diltiazem base starting loadings of 10% w/w, 20% w/w, 30% w/w, and 50% w/w, D 50% of […], respectively, and were prepared by Method A using the Ultra Turrax.
# [2] = cited from earlier work
Compound,"solubility ([1]; aqueous buffer, thermodynamic from solid, phosphate buffer pH 7.4, read-out: Cs (saturated solubility)) [mg/mL]","solubility ([1]; pH 1.2, read-out: Cs (saturated solubility)) [mg/mL]","solubility ([1]; pH 1.2, simulated gastric fluid, thermodynamic from solid) [mg/mL]","solubility ([1]; pH 7.4, aqueous buffer, thermodynamic from solid) [mg/mL]",pKa [2]
COc1ccc([C@@H]2Sc3ccccc3N(CCN(C)C)C(=O)[C@@H]2OC(C)=O)cc1 [Diltiazem HCI],2.39,> 1000,–,–,–
COc1ccc([C@@H]2Sc3ccccc3N(CCN(C)C)C(=O)[C@@H]2OC(C)=O)cc1 [Diltiazem base],–,–,227,1.06,around 8

# Reference: patent EP0754034B1, “EFFERVESCENT PHARMACEUTICAL FORMULATIONS CONTAINING CONTROLLED RELEASE BIODEGRADABLE MICROCAPSULES” (ELAN CORPORATION, Plc, priority 1994, dated 1995)
